Results published in PubChem BioAssay (NCI).
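Results reflect a 48-hour exposure of cells in 96-well plates to compound at five concentrations. The concentration for 50% growth inhibition is given as GI50. At the TGI there is no net growth.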

Tests used:
Assay in all cases: NCI-60 cell line screen, 48 h
SK-MEL-28 melanoma = tested on: SK-MEL-28 melanoma
SK-OV-3 ovarian = tested on: SK-OV-3 ovarian
MOLT-4 leukemia = tested on: MOLT-4 leukemia
OVCAR-3 ovarian = tested on: OVCAR-3 ovarian
SK-MEL-5 melanoma = tested on: SK-MEL-5 melanoma
MDA-MB-435 = tested on: MDA-MB-435
ACHN renal = tested on: ACHN renal
UO-31 renal = tested on: UO-31 renal
EKVX NSCLC = tested on: EKVX NSCLC
HCT-15 colon = tested on: HCT-15 colon
HS 578T breast = tested on: HS 578T breast
SNB-19 CNS = tested on: SNB-19 CNS
UACC-257 melanoma = tested on: UACC-257 melanoma
RPMI-8226 leukemia = tested on: RPMI-8226 leukemia
SF-539 CNS = tested on: SF-539 CNS
DU-145 prostate = tested on: DU-145 prostate
SF-268 CNS = tested on: SF-268 CNS
NCI/ADR-RES ovarian = tested on: NCI/ADR-RES ovarian
K-562 leukemia = tested on: K-562 leukemia
KM12 colon = tested on: KM12 colon
SK-MEL-2 melanoma = tested on: SK-MEL-2 melanoma
RXF 393 renal = tested on: RXF 393 renal
786-0 renal = tested on: 786-0 renal
HCC-2998 colon = tested on: HCC-2998 colon
HOP-62 NSCLC = tested on: HOP-62 NSCLC
CAKI-1 renal = tested on: CAKI-1 renal
SN12C renal = tested on: SN12C renal
OVCAR-8 ovarian = tested on: OVCAR-8 ovarian
LOX IMVI melanoma = tested on: LOX IMVI melanoma

Compound: C[C@@H](Nc1c(C#N)cnc2ccc(-c3cnc(Cl)c(NS(C)(=O)=O)c3)cc12)c1ccccc1
- GI50 (SK-MEL-28 melanoma): 346 nM
- TGI (SK-MEL-28 melanoma): 11200 nM
- GI50 (SK-OV-3 ovarian): 431 nM
- TGI (SK-OV-3 ovarian): 3180 nM
- GI50 (MOLT-4 leukemia): 144 nM
- TGI (MOLT-4 leukemia): 1810 nM
- GI50 (OVCAR-3 ovarian): 260 nM
- TGI (OVCAR-3 ovarian): 3820 nM
- GI50 (SK-MEL-5 melanoma): 138 nM
- TGI (SK-MEL-5 melanoma): 283 nM
- GI50 (MDA-MB-435): 495 nM
- TGI (MDA-MB-435): 11400 nM
- GI50 (ACHN renal): 540 nM
- TGI (ACHN renal): 44100 nM
- GI50 (UO-31 renal): 256 nM
- TGI (UO-31 renal): 9300 nM
- GI50 (EKVX NSCLC): 431 nM
- TGI (EKVX NSCLC): 5350 nM
- GI50 (HCT-15 colon): 303 nM
- TGI (HCT-15 colon): 11500 nM
- GI50 (HS 578T breast): 181 nM
- TGI (HS 578T breast): 1290 nM
- GI50 (SNB-19 CNS): 500 nM
- TGI (SNB-19 CNS): 12100 nM
- GI50 (UACC-257 melanoma): 495 nM
- TGI (UACC-257 melanoma): 7050 nM
- GI50 (RPMI-8226 leukemia): 121 nM
- TGI (RPMI-8226 leukemia): 582 nM
- GI50 (SF-539 CNS): 372 nM
- TGI (SF-539 CNS): 4080 nM
- GI50 (DU-145 prostate): 380 nM
- TGI (DU-145 prostate): 11700 nM
- GI50 (SF-268 CNS): 275 nM
- TGI (SF-268 CNS): 7330 nM
- GI50 (NCI/ADR-RES ovarian): 1610 nM
- TGI (NCI/ADR-RES ovarian): 32100 nM
- GI50 (K-562 leukemia): 264 nM
- TGI (K-562 leukemia): > 100000 nM
- GI50 (KM12 colon): 493 nM
- TGI (KM12 colon): 11300 nM
- GI50 (SK-MEL-2 melanoma): 249 nM
- TGI (SK-MEL-2 melanoma): 1590 nM
- GI50 (RXF 393 renal): 158 nM
- TGI (RXF 393 renal): 877 nM
- GI50 (786-0 renal): 365 nM
- TGI (786-0 renal): > 100000 nM
- GI50 (HCC-2998 colon): 515 nM
- TGI (HCC-2998 colon): 8730 nM
- GI50 (HOP-62 NSCLC): 326 nM
- TGI (HOP-62 NSCLC): 5120 nM
- GI50 (CAKI-1 renal): 241 nM
- TGI (CAKI-1 renal): 3980 nM
- GI50 (SN12C renal): 322 nM
- TGI (SN12C renal): > 100000 nM
- GI50 (OVCAR-8 ovarian): 559 nM
- TGI (OVCAR-8 ovarian): > 36600 nM
- GI50 (LOX IMVI melanoma): 275 nM
- TGI (LOX IMVI melanoma): 1680 nM
